Source: ChEMBL document CHEMBL4619758, “Discovery of 3-({5-Chloro-1-[3-(methylsulfonyl)propyl]-1H-indol-2-yl}methyl)-1-(2,2,2-trifluoroethyl)-1,3-dihydro-2H-imidazo[4,5-c]pyridin-2-one (JNJ-53718678), a Potent and Orally Bioavailable Fusion Inhibitor of Respiratory Syncytial Virus” (J Med Chem, 2020)

How the values were obtained:
[1] = Cytotoxicity against human HeLa cells assessed as reduction in cell viability after 3 days by ATPlite assay
[2] = in vitro; conditions: human, HeLa cells
Description: Selectivity index, ratio of CC50 for human HeLa cells to EC50 GFP-fused RSV 224 fusion protein infected in human HeLa cells

[3] = Metabolic stability in human liver microsomes assessed as compound metabolized after 15 mins; format: ADME, Microsome; conditions: read-out: Drug metabolism
[4] = target: Cytochrome P450 3A4 (Homo sapiens, UniProt P08684); assay: Time-dependent inhibition of CYP3A4 in human liver microsomes using testosterone as substrate; format: ADME
Cytochrome P450 3A4, sequence (P08684 whole entry): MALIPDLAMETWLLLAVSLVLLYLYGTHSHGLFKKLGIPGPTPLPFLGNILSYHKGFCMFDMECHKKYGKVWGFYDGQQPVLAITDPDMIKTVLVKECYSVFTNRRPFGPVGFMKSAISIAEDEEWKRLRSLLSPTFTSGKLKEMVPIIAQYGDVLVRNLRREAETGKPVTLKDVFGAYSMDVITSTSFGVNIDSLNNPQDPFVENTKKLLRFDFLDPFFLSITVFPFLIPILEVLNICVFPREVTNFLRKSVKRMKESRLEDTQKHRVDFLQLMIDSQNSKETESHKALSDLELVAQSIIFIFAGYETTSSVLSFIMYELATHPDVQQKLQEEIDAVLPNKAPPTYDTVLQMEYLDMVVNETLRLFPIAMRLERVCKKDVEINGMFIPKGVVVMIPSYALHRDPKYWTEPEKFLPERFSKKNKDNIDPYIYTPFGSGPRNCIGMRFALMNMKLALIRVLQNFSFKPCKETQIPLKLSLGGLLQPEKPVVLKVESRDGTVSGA

[5] = Cmax in Sprague-Dawley rat at 10 mg/kg, po administered as single dose; format: ADME, organism-based; set-up: dose 10 mg/kg, route oral; conditions: in vivo
[6] = Volume of distribution at steady state in Sprague-Dawley rat at 2 mg/kg, iv administered as single dose; format: ADME, organism-based; conditions: in vivo, read-out: Vdss
[7] = Ratio of AUC (0 to last) in lung to plasma of Sprague-Dawley rat at 10 mg/kg, po administered as single dose; format: ADME, organism-based; conditions: lung and plasma, read-out: Ratio AUC
[8] = Clearance in Sprague-Dawley rat at 2 mg/kg, iv administered as single dose; format: ADME, organism-based; conditions: in vivo
[9] = Absolute oral bioavailability in Sprague-Dawley rat at 10 mg/kg administered as single dose; format: ADME, organism-based; conditions: in vivo
[10] = Protein binding in human plasma assessed as unbound fraction; format: ADME, cell-free
[11] = Metabolic stability in rat liver microsomes assessed as compound metabolized after 15 mins; format: ADME, Microsome; conditions: read-out: Drug metabolism
[12] = AUC in Sprague-Dawley rat at 10 mg/kg, po administered as single dose; format: ADME, organism-based; conditions: in vivo

Row | Structure (SMILES) | CC50 at 72 h [1] [µM] | metabolised at 0.25 h [3] [%] | also measured
1 | O=c1n(Cc2cc3cnccc3n2CCCCO)c2cnccc2n1C1CC1 | > 100 |  | selectivity ratio [2]: > 57000
2 | COc1ccc(-n2c(=O)n(Cc3cc4cc(Cl)ccc4n3CCCC#N)c3cnccc32)c(C)c1 | > 50 | 36 | 
3 | CC(n1c(=O)n(Cc2cc3cc(Cl)ccc3n2CCCS(C)(=O)=O)c2cnccc21)C(F)(F)F (stereo not drawn) | > 50 | 2 | 
4 | CC1(n2c(=O)n(Cc3cc4cc(Cl)ccc4n3CCCS(C)(=O)=O)c3cnccc32)CC1 | > 50 | 29 | TDI [4]: Not Active
5 | O=c1n(Cc2cc3ccncc3n2CCCCO)c2cnccc2n1C1CC1 | > 100 |  | selectivity ratio [2]: > 76
6 | CS(=O)(=O)CCCn1c(Cn2c(=O)n(CC#N)c3ccncc32)cc2cc(Cl)ccc21 | > 50 | 66 | 
7 | O=c1n(Cc2cc3cc(Br)ccc3n2CCCCO)c2cnccc2n1C1CC1 | > 50 |  | 
8 | O=c1n(Cc2cc3ccc(Cl)cc3n2CCCCO)c2cnccc2n1C1CC1 | > 50 |  | 
9 | CC(C)CCn1c(Cn2c(=O)n(C3CC3)c3ccncc32)cc2cnccc21 | > 50 | 44 | 
10 | O=c1n(Cc2nc3nc(Cl)ccc3n2CCCC(F)(F)F)c2cnccc2n1C1CC1 | > 50 | 0 | Cmax [5]: 1690 ng/mL; Vd [6]: 0.82 L/kg; Kp [7]: 0.4; clearance [8]: 23.3 mL/min/kg; bioavailability [9]: 46%; fraction unbound [10]: 0.3; metabolised at 0.25 h [11]: 80%; AUC [12]: 3370 ng·h/mL
11 | N#CCCCn1c(Cn2c(=O)n(-c3ccc(OC(F)(F)F)cc3)c3ccncc32)cc2cc(Cl)ccc21 | > 50 | 0 | 
12 | N#CCCCn1c(Cn2c(=O)n(-c3ccc(C(=O)O)cc3)c3ccncc32)cc2cc(Cl)ccc21 | > 50 | 9 | 
13 | CC(C)CCn1c(Cn2c(=O)n(C3CC3)c3ccncc32)nc2ncccc21 | > 100 |  | selectivity ratio [2]: > 12000
14 | N#CCCCn1c(Cn2c(=O)n(-c3ccncc3)c3ccncc32)cc2cc(Cl)ccc21 | > 50 | 23 | 
15 | CS(=O)(=O)CCCn1c(Cn2c(=O)n(CC3CC3)c3ccncc32)cc2cc(Cl)ccc21 | > 50 | 98 | TDI [4]: Not Active
16 | CS(=O)(=O)CCCn1c(Cn2c(=O)n(C3COC3)c3ccncc32)cc2cc(Cl)ccc21 | > 50 | 52 | 
17 | Cn1ccc(-n2c(=O)n(Cc3cc4cc(Cl)ccc4n3CCCC#N)c3cnccc32)n1 | > 50 | 49 | 
18 | N#CCCCn1c(Cn2c(=O)n(-c3ncccn3)c3ccncc32)cc2cc(Cl)ccc21 | > 50 | 34 | 
19 | CC(C)CCn1c(Cn2c(=O)n(C3CC3)c3ccncc32)nc2nc(Cl)ccc21 | > 50 | 7 | 
20 | O=c1n(Cc2nc3ncccc3n2CCCCO)c2cnccc2n1C1CC1 | > 100 |  | selectivity ratio [2]: > 10000
21 | CC(C)CCn1c(Cn2c(=O)n(C3CC3)c3ccncc32)cc2ccccc21 | > 100 |  | selectivity ratio [2]: 181; fraction unbound [10]: 0.006

Row | Structure (SMILES) | CC50 at 72 h [1] [µM] | metabolised at 0.25 h [3] [%] | also measured
22 | N#CCCCn1c(Cn2c(=O)n(-c3ccncn3)c3ccncc32)cc2cc(Cl)ccc21 | > 50 | 60 | 
23 | CS(=O)(=O)CCCn1c(Cn2c(=O)n(C3CC3)c3ccncc32)cc2cc(F)ccc21 | > 50 |  | 
24 | N#CCCCn1c(Cn2c(=O)n(C3CC3)c3ccncc32)cc2cc(Cl)ccc21 | > 50 | 17 | Cmax [5]: 1230 ng/mL; Vd [6]: 1.5 L/kg; Kp [7]: 1.6; clearance [8]: 36.7 mL/min/kg; bioavailability [9]: 73%; fraction unbound [10]: 0.036; metabolised at 0.25 h [11]: 80%; AUC [12]: 3300 ng·h/mL
25 | N#CCCCn1c(Cn2c(=O)n(-c3ncco3)c3ccncc32)cc2cc(Cl)ccc21 | > 50 | 45 | 
26 | CS(=O)(=O)CCCn1c(Cn2c(=O)n(C3CC3)c3ccncc32)cc2cc(Br)ccc21 | > 50 |  | 
27 | O=c1n(Cc2cc3cc(Cl)ccc3n2CCCCO)c2cnccc2n1C1CC1 | > 50 | 49 | 
28 | CC(C)CCn1c(Cn2c(=O)n(C3CC3)c3ccncc32)nc2cnccc21 | > 100 |  | selectivity ratio [2]: > 3000
29 | CS(=O)(=O)CCCn1c(Cn2c(=O)n(C3CN(S(C)(=O)=O)C3)c3ccncc32)cc2cc(Cl)ccc21 | > 50 | 15 | 
30 | O=c1n(Cc2cc3cc(Cl)ccc3n2CCCCF)c2cnccc2n1C1CC1 | > 50 | 37 | 
31 | N#CCCCn1c(Cn2c(=O)n(-c3ccc(C(=O)NC4CC4)cc3)c3ccncc32)cc2cc(Cl)ccc21 | > 50 | 24 | 
32 | CC(C)CCn1c(Cn2c(=O)n(C3CC3)c3ccncc32)nc2cccnc21 | > 100 |  | selectivity ratio [2]: > 80
33 | CS(=O)(=O)CCCn1c(Cn2c(=O)n(C3CC3)c3ccncc32)nc2nc(Cl)ccc21 | > 50 | 0 | 
34 | N#CCCCn1c(Cn2c(=O)n(C3CC3)c3ccncc32)nc2nc(Cl)ccc21 | > 50 | 0 | 
35 | CC(C)(O)CCCn1c(Cn2c(=O)n(C3CC3)c3ccncc32)nc2nc(Cl)ccc21 | > 50 | 41 | 
36 | CS(=O)(=O)CCCn1c(Cn2c(=O)n(C3CC3)c3ccncc32)cc2cc(C(F)(F)F)ccc21 | > 50 |  | 
37 | O=c1n(Cc2nc3nc(Cl)ccc3n2CCCCO)c2cnccc2n1C1CC1 | > 50 | 0 | 
38 | O=c1n(Cc2nc3cnccc3n2CCCCO)c2cnccc2n1C1CC1 | > 100 |  | selectivity ratio [2]: > 18000
39 | COc1ccc(-n2c(=O)n(Cc3cc4cc(Cl)ccc4n3CCCC#N)c3cnccc32)cc1C | > 50 | 33 | 
40 | CC(C)CCn1c(Cn2c(=O)n(C3CC3)c3ccncc32)cc2cccnc21 | > 100 |  | 
41 | COc1ccc(-n2c(=O)n(Cc3cc4cc(Cl)ccc4n3CCCC#N)c3cnccc32)c(F)c1 | > 50 | 17 | 
42 | COc1ccc2c(c1)cc(Cn1c(=O)n(C3CC3)c3ccncc31)n2CCCCO | > 50 |  | 

Row | Structure (SMILES) | CC50 at 72 h [1] [µM] | metabolised at 0.25 h [3] [%] | also measured
43 | CS(=O)(=O)CCCn1c(Cn2c(=O)[nH]c3ccncc32)cc2cc(Cl)ccc21 | > 50 | 9 | TDI [4]: Not Active
44 | O=c1n(Cc2cc3ncccc3n2CCCCO)c2cnccc2n1C1CC1 | > 100 |  | selectivity ratio [2]: > 613
45 | N#CCCCn1c(Cn2c(=O)n(-c3ccncc3F)c3ccncc32)cc2cc(Cl)ccc21 | > 50 | 27 | 
46 | CS(=O)(=O)CCCn1c(Cn2c(=O)n(C3CNC3)c3ccncc32)cc2cc(Cl)ccc21 | > 50 | 14 | 
47 | CC(C)(C)n1c(=O)n(Cc2cc3cc(Cl)ccc3n2CCCS(C)(=O)=O)c2cnccc21 | > 50 | 28 | 
48 | O=c1n(Cc2nc3nc(Cl)ccc3n2CCCCF)c2cnccc2n1C1CC1 | > 50 | 0 | 
49 | CC(C)(O)CCCn1c(Cn2c(=O)n(C3CC3)c3ccncc32)cc2cc(Cl)ccc21 | > 50 | 56 | 
50 | Cc1ccc(-n2c(=O)n(Cc3cc4cc(Cl)ccc4n3CCCC#N)c3cnccc32)cc1 | > 50 | 36 | 
51 | O=c1n(Cc2cc3cc(F)ccc3n2CCCCO)c2cnccc2n1C1CC1 | > 50 |  | 
52 | CS(=O)(=O)CCCn1c(Cn2c(=O)n(C3CC3)c3ccncc32)cc2cnccc21 | > 50 | 32 | 
53 | CC(C)n1c(=O)n(Cc2cc3cc(Cl)ccc3n2CCCS(C)(=O)=O)c2cnccc21 | > 50 | 97 | TDI [4]: Not Active
54 | O=c1n(Cc2cc3cnccc3n2CCCCF)c2cnccc2n1C1CC1 | > 50 | 15 | 
55 | NC(=O)CCCn1c(Cn2c(=O)n(C3CC3)c3ccncc32)cc2cc(Cl)ccc21 | > 50 |  | 
56 | CS(=O)(=O)CCCn1c(Cn2c(=O)n(C3CC3)c3ccncc32)cc2ccccc21 | > 100 |  | selectivity ratio [2]: > 10000
57 | N=C(CCCn1c(Cn2c(=O)n(C3CC3)c3ccncc32)cc2cc(Cl)ccc21)NO | > 50 | 37 | 
58 | O=C(O)CCCn1c(Cn2c(=O)n(C3CC3)c3ccncc32)cc2cc(Cl)ccc21 | > 50 |  | 
59 | O=c1n(Cc2cc3cc(Cl)ccc3n2CCCN2CCOCC2)c2cnccc2n1C1CC1 | > 50 | 99 | 
60 | CC(C)CCn1c(Cn2c(=O)n(C3CC3)c3ccncc32)nc2ccncc21 | > 100 |  | selectivity ratio [2]: > 987
61 | O=c1n(Cc2cc3cc(Cl)ccc3n2CCCC(F)(F)F)c2cnccc2n1C1CC1 | > 50 | 23 | 
